Measured values published in patent EP0218400A1, “Assay methods for chemotherapeutic agents” (DAMON BIOTECH, INC., priority 1985, dated 1987).
Read-outs that look alike come from different tables or passages of the source.

Legend:
[1] = system: Human T cell lymphoma (MOLT-4) cells; assay: In vitro drug pretreatment of encapsulated cells, then growth in the peritoneal cavity of mice; assay type: in vivo
Experimental: The encapsulated tumors are preferably incubated at 37° C in medium for 1 to 2 hours. A 25 percent (v/v) suspension can then be prepared (preferably without bovine serum). The suspension can be inoculated in the peritoneal cavity of the host animal (i.e., with a 16 gauge needle).
(§1) In the experiments that follow, the drugs and other agents tested were administered to the host animal by injection at the various times called for in the protocol being tested. At various periods after treatment, the mice were killed by cervical dislocation. The peritoneal cavity of each mouse was washed with PBS or medium and floating microcapsules were aspirated using a large bore plastic Pasteur pipette. Microcapsules were transferred to 15 ml tubes and washed 3 to 4 times with PBS to remove host peritoneal cells. The washed microcapsules were aspirated into 1 ml serological pipettes, allowed to sediment, and the volume of packed microcapsules was determined. Microcapsules were then transferred to a glas dounce homogenizer (7 ml volume) and disrupted with 3 strokes of an A-tolerance plumger. Cells suspensions were filtered through nylon mesh to remove the disrupted membranes. The suspensions containing tumor cells were centrifuged and the pellet was resuspended in 0.25 to 0.5 ml of complete medium. After mixing equal volumes of cell suspension and trypan blue, viable cell counts were determined using a hemocytometer.
(§2) The number of tumor cells per 1 ml of packed microcapsules was determined as follows: a = ? where b = total number of tumor cells in the suspension, and c = total volume of microcapsules used for the preparation of this suspension.
(§3) By comparing the number of tumor cells in 1 ml of microcapsules derived from non-treated and drug-treated mice, the percent inhibition of tumor cell growth was calculated: [formula] where ac = number of tumor cells from the non-treated control microcapsules, and ae = number of tumor cells from the drug treated microcapsules.
Human T cell lymphoma (MOLT-4) cells were encapsulated according to the procedures described above and incubated in vitro in RPMI I640 medium supplemented with 10 percent fetal calf serum, glutamine and antibiotics for one hour of 37°C. During incubation they were exposed to various concentrations of 1,3-B (2-chloroethyl)-1-nitrosourea (BCNU), 5-fluorouracil (5-FU) and adriamycin. The microcapsules were then washed and implanted into the peritoneal cavity (i.p.) of C57BL/6 mice (Animal Production Area NCI-Frederick Cancer Research Facility) using #18-14 needles. After seven days the mice were sacrificed and their peritoneal cavities were washed with PBS and aspirated to collect the microcapsules in a Pasteur pipette. The microcapsules were washed several times from the host peritoneal cells. The microcapsules from the individual mice were counted by transferring them into wells of a 96 well microplate. Using an inverted microscope, the numbers of microcapsules in each well were counted. Each well was washed out and microcapsules were transferred into the glass homogenizer.
Microcapsules were then disrupted, and the suspension was filtered, centrifugated and reconstituted with PBS. The concentration and total number of cells were counted using a hemocytometer.

human Melanoma LOX cells = assay: In vivo susceptibility of encapsulated LOX melanoma cells in nude mice; conditions: for sensitivity of encapsulated LOX cells to the treatment (in words): i.v. days 1, 5, 9; for No. of viable tumor cells per 1 ml. of capsules: i.v. days 1, 5, 9, Adriamycin 6, BCNU 20, CY 100, 5-Fu 60 mg/kg
Experimental: as §1, §2, §3
In this series of experiments, cells of a fourth human cancer type, Melanoma LOX cells, were used. LOX cells have recently been proposed as the model for experimental treatment at the NCI Development Therapeutics Program. Following i.p. inoculation of the suspension of LOX Melanoma cells into nude mice, various drugs were administered i.v. and survival of the treated mice was determined (Schoemaker et al., Proceeding American Association for Cancer Research, 26, 1302, 1985) (mice transplanted with the non-encapsulated tumor cells were considered tumor-free if they survived during 3 months of observation). In parallel experiments encapsulated LOX Melanoma cells were transferred into nude mice and drugs were inoculated i.v. 1, 5 and 9 days at the dose and schedule utilized by the Dr. Shoemaker's procedure.

[2] = system: human colon adenocarcinoma (HT-29) cells; assay: In vivo growth of encapsulated HT-29 cells in C57BL/6 mice
Experimental: as §1, §2, §3
A second human cancer cell line was also used to further analyze in vivo effects of different drugs on the growth of tumors. Encapsulated human colon adenocarcinoma (HT-29) cells were again transplanted into C57BL/6 mice and various drugs were administered after 3 days either by intravenous or by intraperitoneal injection. Animals were sacrificed after 4 days and number of cells per capsule were counted to calculate inhibition rates for the various treatment procedures. […] In fact, 5-FU is a preferred chemotherapeutic agent for patients with gastrointestinal malignancies.

LOX Melanoma cells = conditions: i.v.; Adriamycin 6, BCNU 20, CY 100, 5-Fu 60 mg/kg; survival during 3 months of observation; nude mice; cited from earlier work
[3] = system: MOLT-4 human lymphoma cells; assay: In vivo sensitivity of encapsulated MOLT-4 cells in nude mice, NCI schedule; conditions: Adriamycin 6 mg/kg, 15 days after transplantation
Experimental: as §1, §2, §3
In the next experiment various drugs were administered in vivo according to schedules and doses typically used for screening antitumor effects of the drugs at the National Cancer Institute, Developmental Therapeutics program.
MOLT-4 human lymphoma cells were encapsulated and transplanted into peritoneum of nude mice. Doses of various drugs were applied i.v. at 1, 5 and 9 days after tumor cell transplantation.

MOLT-4 lymphoma cells = assay: In vivo inhibition of encapsulated Molt-4 lymphoma growth in C57BL/6 mice; set-up: species or system human
Experimental: as §1, §2, §3
MOLT-4 lymphoma cells were also used in an in vivo assay. As before, the MOLT-4 cells were encapsulated and transplanted i.p. into C57BL/6 mice. On day 1 following the transplantation of the encapsulated cells, the mice were treated i.v. intravenous (i.v.) with BCNU, adriamycin or cyclophosphamide (CY). This approach allowed the testing of cyclophosphamide (CY) which is inefficient in vitro because it must be metabolized to obtain an active cytotoxic derivative. Ten days after transplantation, the encapsulated cells were retrieved and the tumor cells contained therein were counted. […]

[4] = system: human lung carcinoma A549 cells; assay: In vivo susceptibility of encapsulated A549 cells; conditions: i.v. days 2, 5, 9; for No. of tumor cells per 1 ml of capsules / percent Inhibition: Adriamycin 6, BCNU 20, CY 100 mg/kg
Experimental: as §1, §2, §3
The sensitivity of human lung carcinoma A549 cells to the drugs was assessed 12 and 14 days after transplantation of encapsulated tumor cells. The treatments were applied i.v. 2, 5 and 9 days after microcapsule transplantation (Table 5).

P388 Resistant Cells = assay: In vivo growth of encapsulated adriamycin-resistant P388 lymphoma cells in nude mice; conditions: for inhibition at 100 mg/kg: Mus musculus, P388, iv
Experimental: as §1, §2, §3
(§4) Since drug-resistance is one of the most important causes of failure in chemotherapy, it is crucial that a predictive assay be able to distinguish between effective and non-effective drugs for particular tumors. […] One day later the mice received by i.v. administration Adriamycin (6 mg/kg), Vinblastin (1 mg/kg) or Cyclophosphamide (100 mg/kg). Five days after administration some of the mice were sacrificed, the microcapsules were recovered and the numbers of tumor cells inside the capsules were determined. The remaining mice received a second administration and the microcapsules were recovered from the remaining mice 3 days afterwards. The results are shown in Table 7 and correlate well with the known characteristics of P388 cell line and its variant.

Original P388 cells = assay: In vivo growth of encapsulated original P388 lymphoma cells in nude mice; conditions: for inhibition at 100 mg/kg: Mus musculus, P388, iv
Experimental: as §1, §2, §3, §4

[5] = 25 µg/ml in vitro for one hour, then 7 days i.p. in C57BL/6 mice
[6] = 100 µg/ml in vitro for one hour, then 7 days i.p. in C57BL/6 mice
[7] = Mus musculus, HT-29, ip, i.p. 3 days after transplantation, 5-Fu 150 mg/kg, CY 250 mg/kg, Adriamycin 20 mg/kg, 4 days
[8] = i.p. 3 days after transplantation, 5-Fu 150 mg/kg, CY 250 mg/kg, Adriamycin 20 mg/kg, 4 days
[9] = Mus musculus, MOLT-4, iv, 360 h, i.v. days 1, 5, 9, Cyclophosphamide 100 mg/kg, 5-Fu 60 mg/kg, nude mice
[10] = i.v. days 1, 5, 9, Cyclophosphamide 100 mg/kg, 5-Fu 60 mg/kg, nude mice
[11] = Mus musculus, MOLT-4, iv, i.v. on day 1, Adriamycin 10 mg/kg, BCNU 100 mg/kg, CY 200 mg/kg, capsules retrieved ten days after transplantation
[12] = i.v. on day 1, Adriamycin 10 mg/kg, BCNU 100 mg/kg, CY 200 mg/kg, capsules retrieved ten days after transplantation
[13] = 5 + 3 days after treatment (3 days after second administration), Adriamycin 6, Vinblastin 1, Cyclophosphamide 100 mg/kg i.v.
[14] = 5 days after treatment, i.v. one day after inoculation, Adriamycin 6, Vinblastin 1, Cyclophosphamide 100 mg/kg
[15] = 72 h, 5 + 3 days after treatment (3 days after second administration), Adriamycin 6, Vinblastin 1, Cyclophosphamide 100 mg/kg i.v.

| SMILES | No. of tumor cells per capsule [1, 5] | No. of tumor cells per capsule [1, 6] | sensitivity of encapsulated LOX cells to the treatment (in words) (human Melanoma LOX cells) | No. of viable tumor cells per 1 ml. of capsules (human Melanoma LOX cells) | No. of cells per capsule [2, 8] | Total No. of tumor cells [2, 8] | % survived mice transplanted with nonencapsulated tumor cells (LOX Melanoma cells) | No of viable tumor cells per 1 ml of capsules [3, 10] | No. of cells per capsule (MOLT-4 lymphoma cells; [12]) | Total No. of tumor cells (MOLT-4 lymphoma cells; [12]) | No. of tumor cells per 1 ml of capsules ([4]; 12 days after transplantation) | percent Inhibition ([4]; 12 days after transplantation) | No. of tumor cells per 1 ml of capsules ([4]; 14 days after transplantation) | percent Inhibition ([4]; 14 days after transplantation) | No. cells/ml (P388 Resistant Cells; [13]) | No. cells/ml (P388 Resistant Cells; [14]) | No. cells/ml (Original P388 cells; [13]) | No. cells/ml (Original P388 cells; [14]) | also measured |
| --- | --- | --- | --- | --- | --- | --- | --- | --- | --- | --- | --- | --- | --- | --- | --- | --- | --- | --- | --- |
| O=c1[nH]cc(F)c(=O)[nH]1 [5-Fu, 5-fluorouracil] | 3 x 10^3 | 10^2 | least efficient | 29 x 10^5 | 0.6 x 10^4 | 0.6 x 10^6 | 0% | 41.0 x 10^6 |  |  |  |  |  |  |  |  |  |  | inhibition at 25 µg/mL ([1]; Mus musculus, MOLT-4, ip, 25 µg/ml in vitro for one hour, then 7 days i.p. in C57BL/6 mice, read-out: % Inhibition): 40%; inhibition at 100 µg/mL ([1]; Mus musculus, MOLT-4, ip, 100 µg/ml in vitro for one hour, then 7 days i.p. in C57BL/6 mice, read-out: % Inhibition): 98%; inhibition at 150 mg/kg [2, 7]: 70%; sensitivity of encapsulated HT-29 cells (in words) ([2]; in vivo): more sensitive to 5-FU than to the other drugs tested; inhibition of tumor cell proliferation (in words) ([3]; 5-FU 60 mg/kg i.v. days 1, 5, 9): significantly less efficient; inhibition at 60 mg/kg [3, 9]: 30% |
| O=NN(CCCl)C(=O)NCCCl [BCNU, 1,3-B (2-chloroethyl)-1-nitrosourea] | 1 x 10^4 | 0.1 x 10^4 | most sensitive | 2 x 10^5 |  |  | 50% |  | 1222 | 27 x 10^4 | 7.0 x 10^5 | 88% | 15.7 x 10^5 | 81% |  |  |  |  | inhibition at 100 mg/kg (MOLT-4 lymphoma cells; [11]): 55%; No. of tumor cells per capsule ([1]; 6 µg/ml in vitro for one hour, then 7 days i.p. in C57BL/6 mice): 1 x 10^4; inhibition at 6 µg/mL ([1]; Mus musculus, MOLT-4, ip): 86%; inhibition at 25 µg/mL ([1]; Mus musculus, MOLT-4, ip): 86%; inhibition at 100 µg/mL ([1]; Mus musculus, MOLT-4, ip): 98%; reduction of the numbers of tumor cells (in words) [4]: more efficient in this respect than CY |
| O=P1(N(CCCl)CCCl)NCCCO1 (centres unmarked) [CY, cyclophosphamide] |  |  | most sensitive | 0.7 x 10^5 | 1.6 x 10^4 | 1.1 x 10^6 | 40% | 1.9 x 10^6 | 171 | 10 x 10^4 | 13.5 x 10^5 | 78% | 39.0 x 10^5 | 53% | 1.1 x 10^6 | 0.4 x 10^6 | 1.3 x 10^6 | 0.4 x 10^6 | inhibition at 200 mg/kg (MOLT-4 lymphoma cells; [11]): 93.7%; reduction of the number of viable tumor cells in the capsules (in words) (MOLT-4 lymphoma cells; i.v. on day 1, ten days after transplantation): more effective than BCNU; inhibition at 100 mg/kg (P388 Resistant Cells; [15]): 96%; inhibition at 100 mg/kg (P388 Resistant Cells; Cyclophosphamide 100 mg/kg i.v., both time points): 96 to 98%; inhibition at 100 mg/kg (P388 Resistant Cells; [14]): 98%; inhibition at 100 mg/kg (Original P388 cells; [15]): 97%; inhibition at 100 mg/kg (Original P388 cells; [14]): 98%; inhibition at 250 mg/kg [2, 7]: 20%; inhibition at 100 mg/kg [3, 9]: 97% |
| CCC1(O)CC2CN(CCc3c([nH]c4ccccc34)C(C(=O)OC)(c3cc4c(cc3OC)N(C)C3C(O)(C(=O)OC)C(OC(C)=O)C5(CC)C=CCN6CCC43C65)C2)C1 (centres unmarked) [Vinblastin] |  |  |  |  |  |  |  |  |  |  |  |  |  |  | 23 x 10^6 | 15 x 10^6 | 6 x 10^6 | 9 x 10^6 | % Inhibition (P388 Resistant Cells; [13]): 21%; % Inhibition (P388 Resistant Cells; [14]): 12%; inhibiting the growth of the drug-resistant variant (in words) (P388 Resistant Cells; Adriamycin 6 mg/kg, Vinblastin 1 mg/kg i.v.): Neither Adriamycin nor Vinblastin in the doses administered was effective; % Inhibition (Original P388 cells; [13]): 89%; % Inhibition (Original P388 cells; [14]): 60% |
